From US20250304596A1, “PYRAZINE DERIVATIVES AND USES THEREOF” (FOGHORN THERAPEUTICS INC., priority 2022, published 2025)

How the values were obtained:
HiBit-BRM fusion protein = target: T1, HiBit-BRM fusion protein (Homo sapiens, UniProt P51531); assay: HiBiT-BRM cell-based degradation assay (Nano-Glo HiBiT Lytic Detection, 24 h); settings: stable HeLa cell line expressing HiBiT-BRM; for DC50: read-out: BRM HiBit Degradation IC50
T1 construct: expressed in transfected cells
Outline: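 Luminescence from LgBiT complementation after lysis measured HiBiT-BRM levels in stably expressing HeLa cells. Compounds were dosed at up to 30 μM final, in 3-fold 10-point dilutions, for 24 h. Percent degradation was scaled between DMSO wells and wells treated with 2 μM standard BRM/BRG1 degrader.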

[1] = target: T2, HiBit-BRG1 fusion protein (Homo sapiens, UniProt P51532); assay: HiBiT-BRG1 cell-based degradation assay (Nano-Glo HiBiT Lytic Detection, 24 h); settings: stable HeLa cell line expressing HiBit-BRG1 and LgBit; for Dmax: read-out: BRG1 HiBit Degradation Maximum (%); for DC50: read-out: BRMG1 HiBit Degradation IC50
T2 construct: expressed in transfected cells
T2 sequence (P51532 whole entry, the tested form may be a part): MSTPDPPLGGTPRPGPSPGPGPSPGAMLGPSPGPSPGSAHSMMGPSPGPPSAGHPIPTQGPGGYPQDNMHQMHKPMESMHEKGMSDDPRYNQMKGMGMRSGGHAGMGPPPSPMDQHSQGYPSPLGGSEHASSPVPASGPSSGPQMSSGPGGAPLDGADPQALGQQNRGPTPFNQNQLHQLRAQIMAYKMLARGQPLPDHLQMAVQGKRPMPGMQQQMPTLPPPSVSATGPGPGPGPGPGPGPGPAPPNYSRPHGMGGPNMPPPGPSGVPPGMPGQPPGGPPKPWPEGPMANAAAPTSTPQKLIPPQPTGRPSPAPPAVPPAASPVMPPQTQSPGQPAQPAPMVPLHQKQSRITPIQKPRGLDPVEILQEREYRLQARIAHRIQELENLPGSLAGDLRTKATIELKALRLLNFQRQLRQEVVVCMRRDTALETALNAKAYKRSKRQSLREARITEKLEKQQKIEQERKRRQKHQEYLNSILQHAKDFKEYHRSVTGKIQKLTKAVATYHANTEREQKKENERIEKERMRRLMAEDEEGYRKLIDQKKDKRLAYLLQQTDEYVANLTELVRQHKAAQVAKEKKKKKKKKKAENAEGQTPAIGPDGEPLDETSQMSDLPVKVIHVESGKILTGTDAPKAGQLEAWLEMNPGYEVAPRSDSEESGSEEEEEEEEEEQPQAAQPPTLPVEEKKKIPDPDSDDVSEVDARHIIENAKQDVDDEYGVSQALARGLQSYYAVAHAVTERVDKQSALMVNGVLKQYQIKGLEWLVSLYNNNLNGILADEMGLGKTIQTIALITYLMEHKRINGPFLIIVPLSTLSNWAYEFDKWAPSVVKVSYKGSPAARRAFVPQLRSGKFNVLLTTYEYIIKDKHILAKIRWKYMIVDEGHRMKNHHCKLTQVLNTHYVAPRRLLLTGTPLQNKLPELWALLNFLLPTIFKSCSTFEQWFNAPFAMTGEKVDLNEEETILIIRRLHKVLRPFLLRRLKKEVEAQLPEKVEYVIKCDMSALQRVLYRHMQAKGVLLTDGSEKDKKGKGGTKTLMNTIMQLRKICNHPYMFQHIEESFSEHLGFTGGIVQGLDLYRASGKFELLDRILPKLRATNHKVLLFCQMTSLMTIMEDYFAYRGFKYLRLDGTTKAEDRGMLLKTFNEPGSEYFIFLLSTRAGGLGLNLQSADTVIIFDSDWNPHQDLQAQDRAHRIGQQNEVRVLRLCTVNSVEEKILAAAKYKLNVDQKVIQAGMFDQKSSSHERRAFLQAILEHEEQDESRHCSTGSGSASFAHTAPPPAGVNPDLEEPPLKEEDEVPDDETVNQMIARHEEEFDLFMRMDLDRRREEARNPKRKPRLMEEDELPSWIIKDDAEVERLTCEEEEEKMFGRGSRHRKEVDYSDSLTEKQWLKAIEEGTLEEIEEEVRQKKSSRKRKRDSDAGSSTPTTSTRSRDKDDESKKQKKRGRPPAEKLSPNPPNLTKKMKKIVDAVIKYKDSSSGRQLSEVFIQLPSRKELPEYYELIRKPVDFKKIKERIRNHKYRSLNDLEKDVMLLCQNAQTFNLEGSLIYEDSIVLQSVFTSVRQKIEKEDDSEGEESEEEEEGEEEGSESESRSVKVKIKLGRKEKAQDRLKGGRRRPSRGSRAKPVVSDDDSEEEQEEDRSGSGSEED
Outline: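 Degradation read by lytic NanoBiT luminescence after 24 h compound exposure of a stable HiBit-BRG1/LgBit HeLa line. Ten-point, 3-fold series in duplicate, top final dose 30 μM; DMSO and 2 μM standard degrader define 0% and 100% degradation.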

T1 sequence (P51531 whole entry, the tested form may be a part): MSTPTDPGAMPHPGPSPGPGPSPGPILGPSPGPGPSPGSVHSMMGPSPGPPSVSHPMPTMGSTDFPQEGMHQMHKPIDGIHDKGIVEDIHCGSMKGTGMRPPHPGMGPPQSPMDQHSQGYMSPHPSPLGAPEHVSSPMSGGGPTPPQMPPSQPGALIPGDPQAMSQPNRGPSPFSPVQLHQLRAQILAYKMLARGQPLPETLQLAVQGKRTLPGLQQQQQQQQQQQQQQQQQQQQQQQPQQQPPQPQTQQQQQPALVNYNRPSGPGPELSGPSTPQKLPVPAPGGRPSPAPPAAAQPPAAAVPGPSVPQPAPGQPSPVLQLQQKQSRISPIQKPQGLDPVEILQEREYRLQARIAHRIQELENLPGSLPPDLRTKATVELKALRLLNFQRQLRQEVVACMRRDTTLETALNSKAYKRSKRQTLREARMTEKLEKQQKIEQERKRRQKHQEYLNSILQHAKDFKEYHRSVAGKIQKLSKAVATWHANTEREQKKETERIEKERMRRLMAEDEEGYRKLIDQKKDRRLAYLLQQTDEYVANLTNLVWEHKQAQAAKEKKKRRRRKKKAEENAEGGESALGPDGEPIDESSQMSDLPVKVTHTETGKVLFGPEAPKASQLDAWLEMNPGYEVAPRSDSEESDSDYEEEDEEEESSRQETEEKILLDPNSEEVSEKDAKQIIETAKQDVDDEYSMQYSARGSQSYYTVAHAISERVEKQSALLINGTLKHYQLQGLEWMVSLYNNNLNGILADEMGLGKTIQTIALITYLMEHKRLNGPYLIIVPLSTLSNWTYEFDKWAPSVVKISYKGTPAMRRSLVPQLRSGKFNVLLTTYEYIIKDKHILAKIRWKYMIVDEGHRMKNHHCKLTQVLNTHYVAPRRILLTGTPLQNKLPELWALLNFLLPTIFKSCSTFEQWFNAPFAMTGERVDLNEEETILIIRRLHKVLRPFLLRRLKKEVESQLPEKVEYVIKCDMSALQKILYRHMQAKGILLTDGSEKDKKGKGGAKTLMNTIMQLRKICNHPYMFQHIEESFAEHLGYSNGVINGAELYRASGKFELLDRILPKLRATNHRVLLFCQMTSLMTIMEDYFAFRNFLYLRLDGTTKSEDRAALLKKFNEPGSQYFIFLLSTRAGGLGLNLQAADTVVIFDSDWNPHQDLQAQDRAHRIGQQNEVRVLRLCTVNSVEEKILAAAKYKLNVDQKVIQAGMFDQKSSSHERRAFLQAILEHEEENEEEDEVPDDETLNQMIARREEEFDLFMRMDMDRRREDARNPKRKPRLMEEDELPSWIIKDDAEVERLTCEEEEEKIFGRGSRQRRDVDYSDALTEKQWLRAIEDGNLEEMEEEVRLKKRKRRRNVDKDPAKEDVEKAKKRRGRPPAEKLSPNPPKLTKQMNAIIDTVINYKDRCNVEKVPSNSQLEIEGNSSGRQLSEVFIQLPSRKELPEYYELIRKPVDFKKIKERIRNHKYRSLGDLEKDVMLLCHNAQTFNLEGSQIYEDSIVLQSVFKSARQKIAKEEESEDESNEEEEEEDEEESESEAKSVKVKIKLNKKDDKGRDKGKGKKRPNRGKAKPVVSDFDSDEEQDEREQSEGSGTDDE

DC50 (HiBit-BRM fusion protein)	Dmax [1]	DC50 [1]	SMILES	BRM HiBit Degradation Maximum (%) (HiBit-BRM fusion protein)
< 10 nM	< 50%	> 1000 nM	Cc1ncsc1-c1ccc([C@H](C)NC(=O)[C@@H]2C[C@@H](O)CN2C(=O)[C@@H](c2cc(-c3ccc(N4CCC(c5sc6nnc(-c7ccccc7O)cc6c5C)CC4)nc3)no2)C(C)C)cc1 [Compound 59, (2S,4R)-4-hydroxy-1-((R)-2-(3-(6-(4-(3-(2-hydroxyphenyl)-5-methylthieno[2,3-c]pyridazin-6-yl)piperidin-1-yl)pyridin-3-yl)isoxazol-5-yl)-3-methylbutanoyl)-N-((S)-1-(4-(4-methylthiazol-5-yl)phenyl)ethyl)pyrrolidine-2-carboxamide]	A (“A” indicates maximum degradation ≥75%)
> 10 nM	< 50%	> 1000 nM	Cc1ncsc1-c1ccc([C@H](C)NC(=O)[C@@H]2C[C@@H](O)CN2C(=O)[C@@H](c2cc(-c3ccc(N4CC(c5sc6nnc(-c7ccccc7O)cc6c5C)C4)nn3)no2)C(C)C)cc1 [Compound 50, (2S,4R)-4-hydroxy-1-((R)-2-(3-(6-(3-(3-(2-hydroxyphenyl)-5-methylthieno[2,3-c]pyridazin-6-yl)azetidin-1-yl)pyridazin-3-yl)isoxazol-5-yl)-3-methylbutanoyl)-N-((S)-1-(4-(4-methylthiazol-5-yl)phenyl)ethyl)pyrrolidine-2-carboxamide]	A (“A” indicates maximum degradation ≥75%)
< 10 nM	< 50%	–	Cc1ncsc1-c1ccc([C@H](C)NC(=O)[C@@H]2C[C@@H](O)CN2C(=O)[C@@H](c2cc(N3CC[C@H](c4cc5nnc(-c6ccccc6O)cc5s4)C3)no2)C(C)C)cc1 [Compound 73, (2S,4R)-4-hydroxy-1-((R)-2-(3-((S)-3-(3-(2-hydroxyphenyl)thieno[3,2-c]pyridazin-6-yl)pyrrolidin-1-yl)isoxazol-5-yl)-3-methylbutanoyl)-N-((S)-1-(4-(4-methylthiazol-5-yl)phenyl)ethyl)pyrrolidine-2-carboxamide]	A (“A” indicates maximum degradation ≥75%)
> 10 nM	< 50%	> 1000 nM	Cc1cc(-c2cc([C@H](C(=O)N3C[C@H](O)C[C@H]3C(=O)N[C@@H](C)c3ccc(-c4scnc4C)cc3)C(C)C)on2)cnc1N1CCC(c2cc3cc(-c4ccccc4O)nnc3s2)CC1 (single isomer, unassigned) [Compound 2]	A (“A” indicates maximum degradation ≥75%)
> 10 nM	< 50%	–	Cc1ncsc1-c1ccc([C@H](C)NC(=O)[C@@H]2C[C@@H](O)CN2C(=O)[C@@H](c2cc(-c3ccnc(N4CC[C@@H](c5cc6nnc(-c7ccccc7O)cc6s5)C4)n3)no2)C(C)C)cc1 [Compound 83, (2S,4R)-4-hydroxy-1-((R)-2-(3-(2-((R)-3-(3-(2-hydroxyphenyl)thieno[3,2-c]pyridazin-6-yl)pyrrolidin-1-yl)pyrimidin-4-yl)isoxazol-5-yl)-3-methylbutanoyl)-N-((S)-1-(4-(4-methylthiazol-5-yl)phenyl)ethyl)pyrrolidine-2-carboxamide]	A (“A” indicates maximum degradation ≥75%)
< 10 nM	> 75%	> 10 nM	Cc1ncsc1-c1ccc([C@H](C)NC(=O)[C@@H]2C[C@@H](O)CN2C(=O)[C@@H](c2cc(N3CC4(CCC(c5cc6cc(-c7ccccc7O)nnc6s5)CC4)C3)no2)C(C)C)cc1 [Compound 89, (2S,4R)-4-hydroxy-1-((R)-2-(3-(7-(3-(2-hydroxyphenyl)thieno[2,3-c]pyridazin-6-yl)-2-azaspiro[3.5]nonan-2-yl)isoxazol-5-yl)-3-methylbutanoyl)-N-((S)-1-(4-(4-methylthiazol-5-yl)phenyl)ethyl)pyrrolidine-2-carboxamide]	A (“A” indicates maximum degradation ≥75%)
< 10 nM	> 50%	> 10 nM	Cc1ncsc1-c1ccc([C@H](C)NC(=O)[C@@H]2C[C@@H](O)CN2C(=O)[C@@H](c2cc(N3CCC(c4cnc(N5CCC(c6sc7nnc(-c8ccccc8O)cc7c6C)CC5)nc4)CC3)no2)C(C)C)cc1 (single isomer, unassigned) [Compound 60]	A (“A” indicates maximum degradation ≥75%)
< 10 nM	< 50%	> 1000 nM	Cc1ncsc1-c1ccc([C@H](C)NC(=O)[C@@H]2C[C@@H](O)CN2C(=O)[C@@H](c2cc(-c3cnc(N4CC[C@@H](c5cc6cc(-c7ccccc7O)nnc6s5)C4)nc3)no2)C(C)C)cc1 (single isomer, unassigned) [Compound 5]	A (“A” indicates maximum degradation ≥75%)
> 10 nM	< 50%	–	Cc1ncsc1-c1ccc([C@H](C)NC(=O)[C@@H]2C[C@@H](O)CN2C(=O)[C@@H](c2cc(-c3cnc(N4CC[C@@H](c5sc6nnc(-c7ccccc7O)cc6c5C5CC5)C4)nc3)no2)C(C)C)cc1 [Compound 75, (2S,4R)-1-((R)-2-(3-(2-((R)-3-(5-cyclopropyl-3-(2-hydroxyphenyl)thieno [2,3-c]pyridazin-6-yl)pyrrolidin-1-yl)pyrimidin-5-yl)isoxazol-5-yl)-3-methylbutanoyl)-4-hydroxy-N-((S)-1-(4-(4-methylthiazol-5-yl)phenyl)ethyl)pyrrolidine-2-carboxamide]	B (“B” indicates maximum degradation ≥50%)
< 10 nM	< 50%	–	Cc1ncsc1-c1ccc([C@H](C)NC(=O)[C@@H]2C[C@@H](O)CN2C(=O)[C@@H](c2cc(-c3ccc(N4CCC(c5sc6nnc(-c7ccccc7O)cc6c5C)CC4)c(F)c3)no2)C(C)C)cc1 [Compound 103, (2S,4R)-1-((R)-2-(3-(3-fluoro-4-(4-(3-(2-hydroxyphenyl)-5-methylthieno[2,3-c]pyridazin-6-yl)piperidin-1-yl)phenyl)isoxazol-5-yl)-3-methylbutanoyl)-4-hydroxy-N-((S)-1-(4-(4-methylthiazol-5-yl)phenyl)ethyl)pyrrolidine-2-carboxamide]	A (“A” indicates maximum degradation ≥75%)
< 10 nM	< 50%	> 1000 nM	Cc1ncsc1-c1ccc([C@H](C)NC(=O)[C@@H]2C[C@@H](O)CN2C(=O)[C@@H](c2cc(-c3cnc(N4CCC(c5sc6nnc(-c7ccccc7O)cc6c5C)[C@@H](C)C4)nc3)no2)C(C)C)cc1 (stereo in doubt) [Compound 35, (2S,4R)-4-hydroxy-1-((R)-2-(3-(2-((3R,4R)-4-(3-(2-hydroxyphenyl)-5-methylthieno[2,3-c]pyridazin-6-yl)-3-methylpiperidin-1-yl)pyrimidin-5-yl)isoxazol-5-yl)-3-methylbutanoyl)-N-((S)-1-(4-(4-methylthiazol-5-yl)phenyl)ethyl)pyrrolidine-2-carboxamide]	A (“A” indicates maximum degradation ≥75%)
> 10 nM	< 50%	–	Cc1ncsc1-c1ccc([C@H](C)NC(=O)[C@@H]2C[C@@H](O)CN2C(=O)[C@@H](c2cc(N3CCC4(CCC(c5sc6nnc(-c7ccccc7O)cc6c5C)CC4)CC3)no2)C(C)C)cc1 [Compound 85, (2S,4R)-4-hydroxy-1-((R)-2-(3-(9-(3-(2-hydroxyphenyl)-5-methylthieno[2,3-c]pyridazin-6-yl)-3-azaspiro[5.5]undecan-3-yl)isoxazol-5-yl)-3-methylbutanoyl)-N-((S)-1-(4-(4-methylthiazol-5-yl)phenyl)ethyl)pyrrolidine-2-carboxamide]	A (“A” indicates maximum degradation ≥75%)
> 100 nM	< 50%	–	Cc1ncsc1-c1ccc([C@H](C)NC(=O)[C@@H]2C[C@@H](O)CN2C(=O)[C@@H](c2cc(-c3ccnc(N4CC[C@H](c5cc6nnc(-c7ccccc7O)cc6s5)C4)n3)no2)C(C)C)cc1 [Compound 86, (2S,4R)-4-hydroxy-1-((R)-2-(3-(2-((S)-3-(3-(2-hydroxyphenyl)thieno[3,2-c]pyridazin-6-yl)pyrrolidin-1-yl)pyrimidin-4-yl)isoxazol-5-yl)-3-methylbutanoyl)-N-((S)-1-(4-(4-methylthiazol-5-yl)phenyl)ethyl)pyrrolidine-2-carboxamide]	A (“A” indicates maximum degradation ≥75%)
> 1000 nM	< 50%	> 1000 nM	Cc1ncsc1-c1ccc([C@H](C)NC(=O)[C@@H]2C[C@@H](O)CN2C(=O)[C@@H](c2cc(-c3ccnc(N4CC[C@@H](c5sc6nnc(-c7ccccc7O)cc6c5C)C4)n3)no2)C(C)C)cc1 [Compound 7, (2S,4R)-4-hydroxy-1-((R)-2-(3-(2-((R)-3-(3-(2-hydroxyphenyl)-5-methylthieno[2,3-c]pyridazin-6-yl)pyrrolidin-1-yl)pyrimidin-4-yl)isoxazol-5-yl)-3-methylbutanoyl)-N-((S)-1-(4-(4-methylthiazol-5-yl)phenyl)ethyl)pyrrolidine-2-carboxamide]	C (“C” indicates maximum degradation <50%)
< 10 nM	< 50%	> 1000 nM	Cc1ncsc1-c1ccc([C@H](C)NC(=O)[C@@H]2C[C@@H](O)CN2C(=O)[C@@H](c2cc(-c3cnc(N4CCC(c5cc6cc(-c7ccccc7O)nnc6s5)CC4)nc3)no2)C(C)C)cc1 [Compound 54, (2S,4R)-4-hydroxy-1-((R)-2-(3-(2-(4-(3-(2-hydroxyphenyl)thieno[2,3-c]pyridazin-6-yl)piperidin-1-yl)pyrimidin-5-yl)isoxazol-5-yl)-3-methylbutanoyl)-N-((S)-1-(4-(4-methylthiazol-5-yl)phenyl)ethyl)pyrrolidine-2-carboxamide]	A (“A” indicates maximum degradation ≥75%)
